Assay results: patent US20260258351A1, “METHOD FOR DIFFERENTIATING VISCERAL SENSORY NEURONS FROM HUMAN INDUCED PLURIPOTENT STEM CELLS” (SEOUL NATIONAL UNIVERSITY R&DB FOUNDATION, priority 2022, published 2026)

System: induced-Visceral sensory neurons (i-VSN)
Test: Live cell calcium imaging of induced-Visceral sensory neurons after compound treatment
Assay type: cell-based, human
Conditions: real-time calcium imaging, FLIPR Calcium 6 Assay Kit, FIGS. 7a-7f
Description: For Live cell calcium imaging, the FLIPR Calcium 6 Assay Kit ([…], Molecular Devices) was used. The overall steps were performed according to the manufacturer's protocol. The test solution, in which components A and B were mixed, was incubated in an incubator at 37° C. for 2 hours, and during this process, the carbon dioxide concentration was maintained at 5%. Then, after treatment with a fluorescent substance, the fluorescence signal was detected for 5 minutes using an EVOS live imaging system (Thermo-Fisher) capable of maintaining a temperature of 37° C., a 5% carbon dioxide concentration, and 80% humidity. The detected signals were obtained by video or continuous snapshots (once per second). In order to confirm the functional aspect of the induced Visceral sensory neurons, the changes in the activity of the neurons were measured using a real-time calcium imaging technique after treating the Visceral sensory neurons with various compounds known to stimulate the same. A total of three compounds (i.e., liraglutide, CCK-8, and capsaicin) were used. Liraglutide corresponds to an agonist of GLP1R and is known to activate the nodose ganglion. […] CCK-8 is an agonist of the CCK receptor and is known to be able to stimulate the nodose ganglion as well. […] Capsaicin is a compound that has excitotoxicity toward TRPV1 and is known to detect pain and heat sensations in the nodose ganglion. […]

Compound | change in neuron activity (calcium signal) after treatment
COc1cc(CNC(=O)CCCC/C=C/C(C)C)ccc1O [Capsaicin] | induced the activity
CCK-8 | calcium signal was amplified
